# Values of other authors as cited in publication PMC5799168 (Scientific Reports, 2018).
# pIC50: −log10 of the molar value.
# Biological target: T1, Ndi1 (Saccharomyces cerevisiae, UniProt P32340)
# T1 construct: The mature Ndi1, which lacks a mitochondrial targeting; (His)10; made in house; host or cells: E. coli BL21(DE3)pLysS, plasmid pET16b(NDI1-m)
# T1 sequence (P32340 27-513): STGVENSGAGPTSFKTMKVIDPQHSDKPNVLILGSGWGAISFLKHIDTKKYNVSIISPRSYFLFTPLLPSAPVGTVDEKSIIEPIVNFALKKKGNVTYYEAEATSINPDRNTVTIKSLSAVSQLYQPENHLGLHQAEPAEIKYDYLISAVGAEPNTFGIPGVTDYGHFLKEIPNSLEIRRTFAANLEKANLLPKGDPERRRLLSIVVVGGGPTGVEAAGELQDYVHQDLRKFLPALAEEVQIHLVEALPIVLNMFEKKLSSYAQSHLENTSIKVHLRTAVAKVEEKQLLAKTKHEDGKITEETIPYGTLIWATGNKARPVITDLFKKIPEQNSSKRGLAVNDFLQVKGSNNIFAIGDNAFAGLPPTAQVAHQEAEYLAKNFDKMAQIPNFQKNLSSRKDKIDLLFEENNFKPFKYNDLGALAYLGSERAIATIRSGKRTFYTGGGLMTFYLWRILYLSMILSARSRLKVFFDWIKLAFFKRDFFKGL
# Parameters: method as in PMID 17200125
# Conditions: inhibition of Ndi1; cited from earlier work
compound,measurement,value
"CCCCCCCCCCCc1cc(=O)c2ccccc2n1O [AC0-11, 1-hydroxy-2-undecyl-4(1 H) quinolone]",pIC50,6.70
